This note sets out measurements from ChEMBL document CHEMBL3632477 (2015).

pEC50: −log10 of the molar value. Where a SMILES comes first, the peptide text is derived from it. Bridges are numbered along the chain shown (N, C = ends). [ ]: non-standard residue; d: D form. ξ: configuration not given here. Bip(2'-Et-4'-OMe) = CCc1cc(OC)ccc1-c1ccc(C[C@H](N)C(=O)O)cc1; αMePhe(2,6-F2) = C[C@](N)(Cc1c(F)cccc1F)C(=O)O; ξαMePhe(2,6-F2) = CC(N)(Cc1c(F)cccc1F)C(=O)O; Bip = N[C@@H](Cc1ccc(-c2ccccc2)cc1)C(=O)O; αMePhe(2-F) = C[C@](N)(Cc1ccccc1F)C(=O)O; hhPhe = N[C@@H](CCCc1ccccc1)C(=O)O; αMeF = C[C@](N)(Cc1ccccc1)C(=O)O; Aib = CC(C)(N)C(=O)O

In this assay the target is Glucagon-like peptide 1 receptor (Homo sapiens, UniProt P43220). In words: Agonist activity at human GLP-1R expressed in CHO-K1 cells assessed as increase in cAMP level incubated for 30 mins. Format: functional, cell-based. A general note: cAMP levels reflect the balance of adenylyl cyclase and phosphodiesterase activity.
Chain of Glucagon-like peptide 1 receptor (P43220 whole entry): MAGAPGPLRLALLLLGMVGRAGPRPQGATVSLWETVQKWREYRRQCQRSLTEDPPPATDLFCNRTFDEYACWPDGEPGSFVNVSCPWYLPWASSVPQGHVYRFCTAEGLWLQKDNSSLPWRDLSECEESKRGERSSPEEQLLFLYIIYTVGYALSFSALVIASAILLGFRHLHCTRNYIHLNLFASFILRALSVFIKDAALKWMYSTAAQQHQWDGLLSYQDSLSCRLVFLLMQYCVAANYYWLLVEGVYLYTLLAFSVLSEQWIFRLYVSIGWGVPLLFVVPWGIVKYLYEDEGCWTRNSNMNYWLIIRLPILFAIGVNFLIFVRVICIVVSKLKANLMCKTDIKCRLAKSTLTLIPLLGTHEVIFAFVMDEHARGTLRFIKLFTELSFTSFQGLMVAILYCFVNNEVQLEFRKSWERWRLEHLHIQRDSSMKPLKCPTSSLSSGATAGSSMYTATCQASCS
Turning to `CCc1cc(OC)ccc1-c1ccc(C[C@H](NC(=O)[C@H](CC(=O)O)NC(=O)[C@H](CO)NC(=O)[C@@H](NC(=O)[C@](C)(Cc2c(F)cccc2F)NC(=O)[C@@H](NC(=O)CNC(=O)[C@H](CCC(=O)O)NC(=O)[C@@H]2CCCN2C(=O)[C@@H](N)Cc2cnc[nH]2)[C@@H](C)O)[C@@H](C)O)C(=O)N[C@@H](CCCc2ccccc2)C(=O)N[C@H]2CSSC[C@@H](C(=O)N[C@@H](CO)C(=O)O)NC(=O)[C@H](C)NC(=O)CNC(=O)CNC(=O)CNC(=O)[C@H](C)NC(=O)[C@H](C)NC(=O)CNC(=O)CNC2=O)cc1` (H-HPEGT[αMePhe(2,6-F2)]TSD[Bip(2'-Et-4'-OMe)][hhPhe]CGGAAGGGACS-OH; disulfide 12-21), the pEC50 is 9.07.

For the compound `CCc1cc(OC)ccc1-c1ccc(C[C@@H]2NC(=O)[C@H](CC(=O)O)NC(=O)[C@H](CO)NC(=O)[C@@H]3CSSC[C@@H](C(=O)O)NC(=O)[C@H](CSSC[C@H](NC(=O)CNC(=O)[C@H](CCC(=O)O)NC(=O)C(C)(C)NC(=O)[C@H](Cc4cnc[nH]4)NC(C)=O)C(=O)N[C@@](C)(Cc4c(F)cccc4F)C(=O)N3)NC(=O)[C@H](CC(C)C)NC(=O)[C@H](CCCc3ccccc3)NC2=O)cc1` (Ac-H[Aib]EGC[αMePhe(2,6-F2)]CSD[Bip(2'-Et-4'-OMe)][hhPhe]LCC-OH; disulfide 5-13, 7-14), the pEC50 was 7.16.

As for `CCc1cc(OC)ccc1-c1ccc(C[C@@H]2NC(=O)[C@H](CC(=O)O)NC(=O)[C@H](CO)NC(=O)[C@H]([C@@H](C)O)NC(=O)[C@](C)(Cc3ccccc3)NC(=O)[C@H]([C@@H](C)O)NC(=O)CNC(=O)[C@H](CCC(=O)O)NC(=O)[C@@H]3CCCN3C(=O)[C@H](Cc3cnc[nH]3)NC(=O)[C@H](CO)NC(=O)[C@@H]3CSSC[C@H](NC(=O)[C@H](CCCc4ccccc4)NC2=O)C(=O)NCC(=O)NCC(=O)N[C@@H](CC(C)C)C(=O)N[C@@H](CC(C)C)C(=O)N[C@@H](CC(C)C)C(=O)NCC(=O)N[C@@H](CC(C)C)C(=O)N[C@@H](CC(C)C)C(=O)N3)cc1` (cyclo(CGGLLLGLLCSHPEGT[αMeF]TSD[Bip(2'-Et-4'-OMe)][hhPhe]); disulfide 1-10), the pEC50 is 5.55.

On to `CCc1cc(OC)ccc1-c1ccc(C[C@@H]2NC(=O)[C@H](CC(=O)O)NC(=O)[C@H](CO)NC(=O)[C@H]([C@@H](C)O)NC(=O)[C@](C)(Cc3c(F)cccc3F)NC(=O)[C@H]([C@@H](C)O)NC(=O)CNC(=O)[C@H](CCC(=O)O)NC(=O)[C@@H]3CCCN3C(=O)[C@H](Cc3cnc[nH]3)NC(=O)[C@H](CO)NC(=O)[C@@H]3CSSC[C@H](NC(=O)[C@H](CCCc4ccccc4)NC2=O)C(=O)NCC(=O)NCC(=O)N[C@@H](C)C(=O)N[C@@H](C)C(=O)NCC(=O)NCC(=O)NCC(=O)N[C@@H](C)C(=O)N3)cc1` (cyclo(AAGGGACSHPEGT[αMePhe(2,6-F2)]TSD[Bip(2'-Et-4'-OMe)][hhPhe]CGG); disulfide 7-20), for which the pEC50 is 6.37.

In the case of `CC(C)C[C@@H]1NC(=O)[C@H](Cc2ccccc2)NC(=O)[C@H](CC(N)=O)NC(=O)[C@H](CCCNC(=N)N)NC(=O)[C@H](CCCCN)NC(=O)[C@@H]2CSSC[C@@H](C(N)=O)NC(=O)[C@H](CSSC[C@H](NC(=O)[C@@H](N)CO)C(=O)N[C@@H](CO)C(=O)N2)NC1=O` (H-SCSCKRNFLCC-NH2; disulfide 2-10, 4-11), the pEC50 was 9.33.

On to `CCc1cc(OC)ccc1-c1ccc(C[C@@H]2NC(=O)[C@H](CC(=O)O)NC(=O)[C@H](CO)NC(=O)[C@H]([C@@H](C)O)NC(=O)[C@](C)(Cc3c(F)cccc3F)NC(=O)[C@H]([C@@H](C)O)NC(=O)CNC(=O)[C@H](CCC(=O)O)NC(=O)[C@@H]3CCCN3C(=O)[C@H](Cc3cnc[nH]3)NC(=O)[C@H](CO)NC(=O)[C@@H]3CSSC[C@H](NC(=O)[C@H](CCCc4ccccc4)NC2=O)C(=O)NCC(=O)NCC(=O)N[C@@H](C(C)C)C(=O)N[C@@H](C(C)C)C(=O)N[C@@H](C(C)C)C(=O)NCC(=O)N[C@@H](C(C)C)C(=O)N[C@@H](C(C)C)C(=O)N3)cc1` (cyclo(CGGVVVGVVCSHPEGT[αMePhe(2,6-F2)]TSD[Bip(2'-Et-4'-OMe)][hhPhe]); disulfide 1-10), for which the pEC50 is 6.00.

As for `CCc1cc(OC)ccc1-c1ccc(C[C@@H]2NC(=O)[C@H](CC(=O)O)NC(=O)[C@H](CO)NC(=O)[C@H]([C@@H](C)O)NC(=O)[C@](C)(Cc3c(F)cccc3F)NC(=O)[C@H]([C@@H](C)O)NC(=O)CNC(=O)[C@H](CCC(=O)O)NC(=O)[C@@H]3CCCN3C(=O)[C@H](Cc3cnc[nH]3)NC(=O)[C@H](CO)NC(=O)[C@@H]3CSSC[C@H](NC(=O)[C@H](CCCc4ccccc4)NC2=O)C(=O)NCC(=O)N[C@@H](Cc2ccc(-c4ccccc4)cc2)C(=O)N[C@@H](C)C(=O)N[C@@H](C)C(=O)NCC(=O)NCC(=O)NCC(=O)N[C@@H](C)C(=O)N3)cc1` (cyclo(AAGGGACSHPEGT[αMePhe(2,6-F2)]TSD[Bip(2'-Et-4'-OMe)][hhPhe]CG[Bip]); disulfide 7-20), the pEC50 was 6.33.

With `CCc1cc(OC)ccc1-c1ccc(C[C@@H]2NC(=O)[C@H](CC(=O)O)NC(=O)[C@H](CO)NC(=O)[C@@H]3CSSC[C@@H](C(=O)O)NC(=O)[C@H](CSSC[C@H](NC(=O)CNC(=O)[C@H](CCC(=O)O)NC(=O)C(C)(C)NC(=O)[C@@H](N)Cc4cnc[nH]4)C(=O)N[C@@](C)(Cc4c(F)cccc4F)C(=O)N3)NC(=O)[C@H](Cc3ccc(-c4ccccc4)cc3)NC(=O)[C@H](CCCc3ccccc3)NC2=O)cc1` (H-H[Aib]EGC[αMePhe(2,6-F2)]CSD[Bip(2'-Et-4'-OMe)][hhPhe][Bip]CC-OH; disulfide 5-13, 7-14), the pEC50 was 5.12.

As for `CCc1cc(OC)ccc1-c1ccc(C[C@@H]2NC(=O)[C@H](CC(=O)O)NC(=O)[C@H](CO)NC(=O)[C@@H]3CSSC[C@@H](C(=O)O)NC(=O)[C@H](CSSC[C@H](NC(=O)CNC(=O)[C@H](CCC(=O)O)NC(=O)C(C)(C)NC(=O)[C@@H](N)Cc4cnc[nH]4)C(=O)NC(C)(Cc4c(F)cccc4F)C(=O)N3)NC(=O)[C@H](CC(C)C)NC(=O)[C@H](CCCc3ccccc3)NC2=O)cc1` (stereo partly drawn) (H-H[Aib]EGC[ξαMePhe(2,6-F2)]CSD[Bip(2'-Et-4'-OMe)][hhPhe]LCC-OH; disulfide 5-13, 7-14), the pEC50 was 6.37.

`CCc1cc(OC)ccc1-c1ccc(C[C@H](NC(=O)[C@H](CC(=O)O)NC(=O)[C@H](CO)NC(=O)[C@@H](NC(=O)[C@](C)(Cc2ccccc2)NC(=O)[C@@H](NC(=O)CNC(=O)[C@H](CCC(=O)O)NC(=O)[C@@H]2CCCN2C(=O)[C@@H](N)Cc2cnc[nH]2)[C@@H](C)O)[C@@H](C)O)C(=O)N[C@@H](CCCc2ccccc2)C(=O)N[C@H]2CSSC[C@@H](C(=O)N[C@@H](CO)C(=O)O)NC(=O)[C@H](CC(C)C)NC(=O)[C@H](CC(C)C)NC(=O)CNC(=O)[C@H](CC(C)C)NC(=O)[C@H](CC(C)C)NC(=O)[C@H](CC(C)C)NC(=O)CNC(=O)CNC2=O)cc1` (H-HPEGT[αMeF]TSD[Bip(2'-Et-4'-OMe)][hhPhe]CGGLLLGLLCS-OH; disulfide 12-21): the pEC50 is 6.89.

In the case of `CCc1cc(OC)ccc1-c1ccc(C[C@H](NC(=O)[C@H](CC(=O)O)NC(=O)[C@H](CO)NC(=O)[C@@H](NC(=O)[C@](C)(Cc2ccccc2F)NC(=O)[C@H](CS)NC(=O)CNC(=O)[C@H](CCC(=O)O)NC(=O)C(C)(C)NC(=O)[C@@H](N)Cc2cnc[nH]2)[C@@H](C)O)C(=O)N[C@@H](CCCc2ccccc2)C(=O)N[C@H](CS)C(N)=O)cc1`, the pEC50 is less than 6.00.

`CCc1cc(OC)ccc1-c1ccc(C[C@H](NC(=O)[C@H](CC(=O)O)NC(=O)[C@H](CO)NC(=O)[C@@H](NC(=O)[C@](C)(Cc2ccccc2F)NC(=O)[C@@H](NC(=O)CNC(=O)[C@H](CCC(=O)O)NC(=O)[C@@H]2CCCN2C(=O)[C@@H](N)Cc2cnc[nH]2)[C@@H](C)O)[C@@H](C)O)C(=O)N[C@@H](CCCc2ccccc2)C(=O)N[C@H]2CSSC[C@@H](C(=O)N[C@@H](CO)C(=O)O)NC(=O)[C@H](C)NC(=O)CNC(=O)CNC(=O)CNC(=O)[C@H](C)NC(=O)[C@H](C)NC(=O)CNC(=O)CNC2=O)cc1` (H-HPEGT[αMePhe(2-F)]TSD[Bip(2'-Et-4'-OMe)][hhPhe]CGGAAGGGACS-OH; disulfide 12-21): the pEC50 was 9.00.

Take `CCc1cc(OC)ccc1-c1ccc(C[C@@H]2NC(=O)[C@H](CC(=O)O)NC(=O)[C@H](CO)NC(=O)[C@@H]3CSSC[C@@H](C(=O)O)NC(=O)[C@H](CSSC[C@H](NC(=O)CNC(=O)[C@H](CCC(=O)O)NC(=O)C(C)(C)NC(=O)[C@@H](N)Cc4cnc[nH]4)C(=O)N[C@@H](Cc4ccccc4)C(=O)N3)NC(=O)[C@H](CC(C)C)NC(=O)[C@H](CCCc3ccccc3)NC2=O)cc1` (H-H[Aib]EGCFCSD[Bip(2'-Et-4'-OMe)][hhPhe]LCC-OH; disulfide 5-13, 7-14): the pEC50 is 4.80.

In general, pEC50 refers to −log10 of the EC50, conventionally taken in molar units.
